Source: US6645976B1 (Eli Lilly and Company, priority 1994, dated 2003)
pIC50: −log10 of the molar value.

Columns and labels:
[1] = target: T1, recombinant human secreted phospholipase A2 (Homo sapiens, UniProt P14555); experiment: sPLA2 Chromogenic Assay (Assay 1); format: biochemical; conditions: diheptanoyl thio-PC substrate, pH 7.5, 40° C. for 30 minutes, absorbance at 405 nanometers
T1 sequence (P14555 21-144): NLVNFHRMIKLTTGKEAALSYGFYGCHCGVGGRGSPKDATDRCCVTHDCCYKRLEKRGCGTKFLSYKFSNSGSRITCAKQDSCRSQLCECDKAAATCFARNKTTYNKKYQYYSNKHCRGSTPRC

Row | SMILES | pIC50 [1] | melting point
1 | CCc1c(C(=O)C(N)=O)c2c(OCC(=O)OC)cccn2c1Cc1ccccc1Cc1ccccc1 [Compound 51j] | 7.70 | 190 to 191 °C
2 | COC(=O)COc1cccn2c(CC3CCCCC3)c(C)c(C(=O)C(N)=O)c12 [Compound 51t] | 6.89 | 177 to 178 °C
3 | CC(C)(C)c1c(C(=O)C(N)=O)c2c(OCC(=O)O)cccn2c1Cc1ccccc1-c1ccccc1 [Compound 58e, 2-(2-t-Butyl-8-carboxymethoxyl-3-(o-phenylbenzyl)indlolin-1-yl)glyoxylamide] | 7.00 | 221 to 222 °C
4 | NC(=O)C(=O)c1c(C2CCCC2)c(Cc2ccccc2-c2ccccc2)n2cccc(OCC(=O)O)c12 [Compound 58f, 2-(8-Carboxymethyloxy-2-cyclopentyl-3-(o-phenylbenzyl)indlolin-1-yl)glyoxylamide] | 6.55 | 147 to 148 °C
5 | NC(=O)C(=O)c1c(C2CC2)c(Cc2cccc3ccccc23)n2cccc(OCC(=O)O)c12 [Compound 58j, 2-(8-carboxymethoxyl-2-cyclopropyl-3-(1-naphthylmethyl)indlolin-1-yl)glyoxylamide] | 7.64 | 205 to 207 °C
6 | CCc1c(C(=O)C(N)=O)c2c(OCC(=O)OCC(=O)OC(C)(C)C)cccn2c1Cc1ccccc1-c1ccccc1 [Compound 59d] | 7.08 | 102 to 104 °C
7 | CCc1c(C(=O)C(N)=O)c2c(OCC(=O)OC(C)OC(=O)OC3CCCC3)cccn2c1Cc1ccccc1-c1ccccc1 (stereo not drawn) [Compound 59g, 2-(3-Biphenyl-2-ylmethyl-8-(1-cyclopentyloxycarbonyloxyethyloxycarbonylmethyloxy)-2-ethylindolizin-1-yl)glyoxylamide] | 7.41 | 74 to 80 °C
8 | CCc1c(C(=O)C(N)=O)c2c(OCC(=O)OCCN3CCOCC3)cccn2c1Cc1ccccc1-c1ccccc1 [Compound 59i, 2-(3-(Biphenyl-2-yl-methyl)-2-ethyl-8-(2-morpholinoethyloxycarbonylmethyloxy)indolizine-1-yl)glyoxylamide] | 7.66 | 113 to 120 °C (dec.)
9 | CCc1c(C(=O)C(N)=O)c2c(OCc3nnn[nH]3)cccn2c1Cc1ccccc1-c1ccccc1 [Compound 59m, 2-(3-(Biphenyl-2-yl-methyl)-2-ethyl-8-(1H-tetracol-5-ylmethyloxy)indolizine-1-yl)glyoxylamide] | 8.15 | 206 to 209 °C (dec.)
10 | Cc1c(C(=O)C(N)=O)c2c(OCc3ccccn3)cccn2c1Cc1ccccc1-c1ccccc1 [Compound 59n, 2-(3-Biphenyl-2-ylmethyl-2-methyl-8-(pyridin-2-ylmethoxy)-indolizin-1-yl)-glyoxylamide] | 6.22 | 196 to 197 °C
11 | Cc1c(C(=O)C(N)=O)c2c(OCc3ccncc3)cccn2c1Cc1ccccc1-c1ccccc1 [Compound 59o, 2-(3-Biphenyl-2-ylmethyl-2-methyl-8-(pyridin-4-ylmethoxy)-indolizin-1-yl)-glyoxylamide] | 6.31 | 195 to 197 °C
12 | Cc1c(C(=O)C(N)=O)c2c(OCc3ccc4ccccc4n3)cccn2c1Cc1ccccc1-c1ccccc1 [Compound 59p, 2-(3-Biphenyl-2-ylmethyl-2-methyl-8-(quinolin-2-ylmethoxy)-indolizin-1-yl)-glyoxylamide] | 6.70 | 165 to 167 °C
13 | CCc1c(C(=O)C(N)=O)c2c(OCCC(=O)OC)cccn2c1Cc1ccccc1-c1ccccc1 [Compound 70c, 2-(3-(Biphenyl-2-yl-methyl)-8-(2-carbomethoxyethyloxy)-2-ethylindolizine-1-yl)glyoxylamide] | 6.89 | 159 to 162 °C

More lines, now with the values ahead:

Row | pIC50 [1] | melting point | SMILES
14 | 6.37 | 158 to 159 °C | CCc1c(C(=O)C(N)=O)c2c(OCC(=O)OC)cccn2c1CC1CCCC1 [Compound 51c, 2-(8-(Carbomethoxymethyloxy)-3-cyclopentylmethyl-2-ethylindolizin-1-yl)glyoxylamide]
15 | 6.26 | 147 to 148 °C | CCc1c(C(=O)C(N)=O)c2c(OCC(=O)OC)cccn2c1CC1CCCCCC1 [Compound 51d, 2-(8-(Carbomethoxymethyloxy)-3-cycloheptylmethyl-2-ethylindolizin-1-yl)glyoxylamide]
16 | 6.23 | 114 to 115 °C | CCCC(CCC)Cc1c(CC)c(C(=O)C(N)=O)c2c(OCC(=O)OC)cccn12 [Compound 51f, 2-(8-(Carbomethoxymethyloxy)-2-ethyl-3-(2-propylpentyl)indolizin-1-yl)glyoxylamide]
17 | 6.77 | 195 to 196 °C | CCc1c(C(=O)C(N)=O)c2c(OCC(=O)OC)cccn2c1Cc1ccc2ccccc2c1 [Compound 51g, 2-(8-(Carbomethoxymethyloxy)-2-ethyl-3-(naphth-2-ylmethyl)indolizin-1-yl)glyoxylamide]
18 | 7.02 | 176 to 177 °C | CCc1c(C(=O)C(N)=O)c2c(OCC(=O)OC)cccn2c1Cc1sccc1-c1cccs1 [Compound 51l, 2-(8-(Carbomethoxymethyloxy)-2-ethyl-3-((3-thiophen-2-yl)thiophen-2-ylmethyl)indolizin-1-yl)glyoxylamide]
19 | 6.51 | 155 to 157 °C | CCc1c(C(=O)C(N)=O)c2c(OCC(=O)OC)cccn2c1Cc1cccc(OC)c1 [Compound 51m, 2-(2-Ethyl-8-(carbomethoxymethyloxy)-3-(m-methoxybenzyl)indolizine-1-yl)glyoxylamide]
20 | 6.82 | 174 to 176 °C | CCCCc1ccc(Cc2c(CC)c(C(=O)C(N)=O)c3c(OCC(=O)OC)cccn23)cc1 [Compound 51s, 2-(3-(p-n-Butylbenzyl)-8-(carbomethoxymethyloxy)-2-ethylindolizin-1-yl)glyoxylamide]
21 | 7.77 | 176 to 177 °C | CCCC(CCC)Cc1c(CC)c(C(=O)C(N)=O)c2c(OCC(=O)O)cccn12 [Compound 52f, 2-(8-Carboxymethyloxy-2-ethyl-3-(2-propylpentyl)indolizin-1-yl)glyoxylamide]
22 | 8.00 | 209 to 210 °C | CCc1c(C(=O)C(N)=O)c2c(OCC(=O)O)cccn2c1Cc1sccc1-c1cccs1 [Compound 52l, 2-(8-(Carboxymethyloxy)-2-ethyl-3-((3-thiophen-2-yl)thiophen-2-ylmethyl)indolizin-1-yl)glyoxylamide]
23 | 8.05 | 241 to 244 °C | CCc1c(C(=O)C(N)=O)c2c(OCC(=O)O)cccn2c1Cc1cccc(-c2ccccc2)c1 [Compound 58g, 2-(8-Carboxymethyloxy-2-ethyl-3-(m-phenylbenzyl)indlolin-1-yl)glyoxylamide]
24 | 7.42 | 222 to 224 °C | CCc1c(C(=O)C(N)=O)c2c(OCC(=O)O)cccn2c1CC=Cc1ccccc1 [Compound 58h, 2-(8-Carboxymethyloxy-2-ethyl-^3-(3-phenyl-2-propenyl)indlolin-1-yl)glyoxylamide]
25 | 7.29 | 215 to 217 °C | CCc1c(C(=O)C(N)=O)c2c(OCC(=O)O)cccn2c1CCCc1ccccc1 [Compound 58i, 2-(8-Carboxymethyloxy-2-ethyl-3-(3-phenyl-2-propanyl)indlolin-1-yl)glyoxylamide]
26 | 7.37 | 229 to 234 °C | NC(=O)C(=O)c1c(C2CC2)c(CC2CCCCC2)n2cccc(OCC(=O)O)c12 [Compound 58k, 2-(8-carboxymethoxyl-3-cyclohexylmethyl-2-cyclopropylindolizin-1-yl)glyoxylamide]
27 | 6.95 | 159 to 162 °C | CCc1c(C(=O)C(N)=O)c2c(OCC(=O)OCC(C)=O)cccn2c1Cc1ccccc1-c1ccccc1 [Compound 59k, 2-(3-(Biphenyl-2-yl-methyl)-2-ethyl-8-(2-oxopropyloxycarbonylmethoxy)indolizine-1-yl)glyoxylamide]
